Measured values taken from patent US9382254B2, “Compounds and pharmaceutical compositions thereof for the treatment of cystic fibrosis” (Galapagos NV, priority 2013, dated 2016).
pEC50: −log10 of the molar value. Values joined by “and” are separate entries in the source; they are usually repeats but may differ in a detail not shown here. Identical values can stand only once.

Columns and labels:
Type in all cases: cell-based
CFTR-R117H = biological target: T1, CFTR-R117H (Homo sapiens, UniProt P13569, R117H); test: YFP-halide influx assay for the CFTR-R117H
T1 construct: expressed in transfected cells
Excerpt: (§1) The YFP halide influx assay measures the functionality of the cystic fibrosis Transmembrane Conductance regulator (CFTR) channels. The assay is used to evaluate the capacity of compounds to increase the channel opening of existing mutant CFTR channels in the membrane. It makes use of the observation that the yellow fluorescent protein (YFP) variant YFP H148Q, I152L, […] has its fluorescence substantially quenched by halide ions like Cl^− and I^−. (Galietta, Haggie, & Verkman, 2001)
(§2) For this purpose, HEK293-cells are seeded in 96 well plates. During seeding, the cells are reverse-transfected with plasmid vectors that direct the expression of the CFTR G551D mutant and of the YFP reporter. Cells are incubated at 37° C., 5% CO2 for 24 hours so as to allow for sufficient expression of the CFTR protein.
(§3) The I^−-induced quenching of fluorescence is recorded immediately after injection of I^− for 7 seconds. The capacity of a compound to increase the channel opening is directly correlated with the decrease in fluorescence, and is expressed as (1-(fluorescence after 7 seconds (F)/fluorescence before injection (F0))) and an EC50 can be derived from a (1-F/F0) vs compound concentration plot.
(§4) Similar YHA assays were developed for other channel gating defective or channel conductance defective CFTR mutants to determine effect of compound on channel activity. Examples of mutants are G178R, G1349D, S549N, R117H, R334W. This assay is also used for additional class I CFTR mutants, including G542X, W1282X; class II mutants including N1303K, and for class III mutants including S1251N.

CFTR-G178R = biological target: T2, CFTR-G178R (Homo sapiens, UniProt P13569, G178R); test: YFP-halide influx assay for the CFTR-G178R
T2 construct: expressed in transfected cells
Excerpt: as §1, §2, §3, §4

CFTR G551D mutant = biological target: T3, CFTR G551D mutant (Homo sapiens, UniProt P13569, G551D); test: YFP-halide influx assay for the CFTR-G551D mutation; conditions: HEK293 cells, forskolin 10.67 μM
T3 construct: expressed in transfected cells; host or cells: HEK293 (reverse transfection with plasmid)
Outline: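 Channel opening potentiation measured as 1−F/F0, where F is YFP fluorescence 7 s after iodide injection and F0 before; EC50 taken from concentration plot. Cells: HEK293 transiently expressing CFTR G551D plus halide-sensitive YFP (H148Q, I152L, F47L), 24 h at 37 °C, 5% CO2.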

CFTR-S549N = biological target: T4, CFTR-S549N (Homo sapiens, UniProt P13569, S549N); test: YFP-halide influx assay for the CFTR-S549N
T4 construct: expressed in transfected cells
Excerpt: as §1, §2, §3, §4

CFTR-G1349D = biological target: T5, CFTR-G1349D (Homo sapiens, UniProt P13569, G1349D); test: YFP-halide influx assay for the CFTR-G1349D
T5 construct: expressed in transfected cells
Excerpt: as §1, §2, §3, §4

CFTR ΔF508 mutant [1] = biological target: T6, CFTR ΔF508 mutant (Homo sapiens, UniProt P13569, DEL508-508); test: YFP-halide influx assay for the CFTR-ΔF508 mutation (384 well, FDSS/μCell); conditions: CFBE41o- cells, CFTR-ΔF508, 1×D-PBS, fluorescence after 36 seconds
T6 construct: expressed in transfected cells; host or cells: CFBE41o- (adenoviral transduction)
Outline: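 Potentiator read-out as 1−F/F0, F taken 36 s after iodide addition, EC50 fitted against compound concentration. Cells: CFBE41o- expressing ΔF508 CFTR plus halide-sensitive YFP via adenovirus, rescued by 27 °C for 24 h or 24 h modulator at 37 °C.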

CFTR ΔF508 mutant [2] = biological target: T6, CFTR ΔF508 mutant; test: YFP-halide influx assay for the CFTR-ΔF508 mutation, PBS buffer (96 well); conditions: CFBE41o- cells, forskolin 10.67 μM
Outline: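 CFBE41o- cells were adenovirally transduced with CFTR ΔF508 and YFP H148Q/I152L, then incubated 24 h at 27 °C or with a CFTR modulator at 37 °C. I⁻-induced fluorescence quenching was recorded over 7 s after injection; response expressed as 1−F/F0, with EC50 from concentration plots.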

T2 sequence (P13569 whole entry G178R): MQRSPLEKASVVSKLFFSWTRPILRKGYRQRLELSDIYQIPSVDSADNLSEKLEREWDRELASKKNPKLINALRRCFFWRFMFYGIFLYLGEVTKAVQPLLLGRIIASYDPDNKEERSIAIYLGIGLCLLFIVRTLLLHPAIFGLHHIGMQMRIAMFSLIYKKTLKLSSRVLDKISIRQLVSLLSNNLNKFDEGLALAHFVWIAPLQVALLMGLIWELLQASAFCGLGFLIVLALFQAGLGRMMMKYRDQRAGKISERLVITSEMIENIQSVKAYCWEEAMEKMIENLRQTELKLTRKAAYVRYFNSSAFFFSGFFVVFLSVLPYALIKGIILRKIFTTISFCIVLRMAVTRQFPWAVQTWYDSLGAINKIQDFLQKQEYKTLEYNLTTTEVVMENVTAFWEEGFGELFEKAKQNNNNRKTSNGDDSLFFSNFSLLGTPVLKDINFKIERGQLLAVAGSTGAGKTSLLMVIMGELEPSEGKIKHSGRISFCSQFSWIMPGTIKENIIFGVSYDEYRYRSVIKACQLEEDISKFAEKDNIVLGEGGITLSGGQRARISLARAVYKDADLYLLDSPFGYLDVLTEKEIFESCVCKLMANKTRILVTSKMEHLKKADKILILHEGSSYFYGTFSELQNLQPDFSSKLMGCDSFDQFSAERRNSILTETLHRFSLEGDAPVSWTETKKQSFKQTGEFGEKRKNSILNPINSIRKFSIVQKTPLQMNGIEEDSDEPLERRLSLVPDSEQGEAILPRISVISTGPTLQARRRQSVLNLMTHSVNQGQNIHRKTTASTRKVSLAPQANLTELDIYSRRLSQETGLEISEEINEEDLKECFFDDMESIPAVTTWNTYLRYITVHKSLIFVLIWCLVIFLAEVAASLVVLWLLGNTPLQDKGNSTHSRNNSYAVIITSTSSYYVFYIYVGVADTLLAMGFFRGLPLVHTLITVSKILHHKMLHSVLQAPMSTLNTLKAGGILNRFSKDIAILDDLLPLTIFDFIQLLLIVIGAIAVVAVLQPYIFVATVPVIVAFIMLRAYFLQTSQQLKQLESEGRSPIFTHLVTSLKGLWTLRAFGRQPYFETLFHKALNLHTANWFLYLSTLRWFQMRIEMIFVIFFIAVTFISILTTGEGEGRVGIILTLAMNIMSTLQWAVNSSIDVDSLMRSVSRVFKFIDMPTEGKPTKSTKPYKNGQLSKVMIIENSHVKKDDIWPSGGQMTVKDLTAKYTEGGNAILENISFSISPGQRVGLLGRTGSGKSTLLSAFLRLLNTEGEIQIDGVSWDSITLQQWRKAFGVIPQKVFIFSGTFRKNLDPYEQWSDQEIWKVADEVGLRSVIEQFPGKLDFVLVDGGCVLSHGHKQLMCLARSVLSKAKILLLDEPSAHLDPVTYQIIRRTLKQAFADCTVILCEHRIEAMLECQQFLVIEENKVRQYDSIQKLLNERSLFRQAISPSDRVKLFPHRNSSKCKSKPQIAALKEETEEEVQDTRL
T1 sequence (P13569 whole entry R117H): as the sequence (P13569 whole entry G178R) above, with R117H, R178G counted along it
T6 sequence (P13569 with tags, fused parts or gaps DEL508-508): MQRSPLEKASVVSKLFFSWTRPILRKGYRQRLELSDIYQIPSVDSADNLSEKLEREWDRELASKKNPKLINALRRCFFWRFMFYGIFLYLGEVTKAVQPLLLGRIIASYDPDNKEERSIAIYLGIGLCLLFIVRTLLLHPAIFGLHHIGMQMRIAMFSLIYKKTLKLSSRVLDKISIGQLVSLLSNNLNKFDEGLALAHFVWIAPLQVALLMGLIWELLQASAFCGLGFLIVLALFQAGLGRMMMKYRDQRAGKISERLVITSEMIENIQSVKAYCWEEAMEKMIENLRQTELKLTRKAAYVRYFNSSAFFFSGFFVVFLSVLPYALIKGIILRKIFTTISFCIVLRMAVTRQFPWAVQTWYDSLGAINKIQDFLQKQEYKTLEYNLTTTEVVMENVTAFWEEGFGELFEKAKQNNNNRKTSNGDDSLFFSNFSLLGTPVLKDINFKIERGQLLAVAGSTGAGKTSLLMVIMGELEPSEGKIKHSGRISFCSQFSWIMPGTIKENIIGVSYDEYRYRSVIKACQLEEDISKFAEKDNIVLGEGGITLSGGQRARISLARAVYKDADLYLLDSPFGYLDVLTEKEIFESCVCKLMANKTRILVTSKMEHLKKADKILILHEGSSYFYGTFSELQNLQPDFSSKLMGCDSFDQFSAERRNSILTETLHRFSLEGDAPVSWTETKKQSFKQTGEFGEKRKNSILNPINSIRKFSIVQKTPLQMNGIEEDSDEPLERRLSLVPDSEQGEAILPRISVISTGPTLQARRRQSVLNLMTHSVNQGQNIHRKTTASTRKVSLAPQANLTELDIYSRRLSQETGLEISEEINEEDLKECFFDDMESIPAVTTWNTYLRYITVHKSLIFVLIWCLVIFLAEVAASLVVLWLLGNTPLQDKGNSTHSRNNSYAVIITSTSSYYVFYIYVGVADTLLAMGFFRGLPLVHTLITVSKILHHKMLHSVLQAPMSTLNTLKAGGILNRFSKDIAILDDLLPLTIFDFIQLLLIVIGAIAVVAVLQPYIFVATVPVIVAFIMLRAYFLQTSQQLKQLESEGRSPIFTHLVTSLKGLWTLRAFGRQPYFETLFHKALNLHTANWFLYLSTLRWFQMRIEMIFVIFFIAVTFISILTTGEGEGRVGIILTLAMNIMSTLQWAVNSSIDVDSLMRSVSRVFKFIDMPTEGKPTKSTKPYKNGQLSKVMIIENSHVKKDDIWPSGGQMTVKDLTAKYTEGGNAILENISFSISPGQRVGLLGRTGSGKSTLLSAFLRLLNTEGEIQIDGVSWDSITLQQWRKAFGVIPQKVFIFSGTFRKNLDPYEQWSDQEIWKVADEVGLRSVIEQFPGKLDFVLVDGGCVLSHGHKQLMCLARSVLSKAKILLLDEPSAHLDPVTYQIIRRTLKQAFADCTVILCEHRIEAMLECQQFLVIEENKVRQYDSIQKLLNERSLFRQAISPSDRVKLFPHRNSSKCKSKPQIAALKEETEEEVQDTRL
T4 sequence (P13569 whole entry S549N): as the sequence (P13569 whole entry G178R) above, with R178G, S549N counted along it
T5 sequence (P13569 whole entry G1349D): as the sequence (P13569 whole entry G178R) above, with R178G, G1349D counted along it
T3 sequence (P13569 whole entry G551D): as the sequence (P13569 whole entry G178R) above, with R178G, G551D counted along it

| SMILES | pEC50 (CFTR-R117H) | pEC50 (CFTR-G178R) | pEC50 (CFTR G551D mutant) | pEC50 (CFTR-S549N) | pEC50 (CFTR-G1349D) | pEC50 (CFTR ΔF508 mutant [1]) | pEC50 (CFTR ΔF508 mutant [2]) |
| --- | --- | --- | --- | --- | --- | --- | --- |
| NC(=O)c1cc(S(=O)(=O)c2ccc(F)cc2)sc1NC(=O)C1(CO)CC1 [Compound 254, 5-(4-fluorophenylsulfonyl)-2-(1-(hydroxymethyl)cyclopropanecarboxamido) thiophene-3-carboxamide] | 6.89 | 7.24 | 6.06 and 5.85 | 6.61 | 6.85 | 7.56 | 7.52 and 6.86 |
| Cc1ccc(C(F)(F)F)c(S(=O)(=O)c2cc(C(N)=O)c(NC(=O)C(C)(C)O)s2)n1 [Compound 413, 2-[(2-hydroxy-2-methyl-propanoyl)amino]-5-[[6-methyl-3-(trifluoromethyl)-2-pyridyl]sulfonyl] thiophene-3-carboxamide] | 7.15 | 7.35 | 5.83 | 7.19 | 6.87 | 7.89 | – |
| COc1cc(C)cc(S(=O)(=O)c2cc(C(N)=O)c(NC(=O)C(C)(C)O)s2)c1 [Compound 416, 2-[(2-hydroxy-2-methyl-propanoyl)amino]-5-(3-methoxy-5-methyl-phenyl)sulfonyl-thiophene-3-carboxamide] | 6.45 | 6.57 | 6.11 | 5.75 | 6.45 | 7.75 | – |
| COc1cc(S(=O)(=O)c2cc(C(N)=O)c(NC(=O)C(C)(C)O)s2)c(OC(F)F)cn1 [Compound 418, 5-[[5-(difluoromethoxy)-2-methoxy-4-pyridyl]sulfonyl]-2-[(2-hydroxy-2-methyl-propanoyl)amino] thiophene-3-carboxamide] | 6.72 | 7.84 | 6.41 | 6.74 | 7.74 | 8.09 | – |
| COc1cc(C#N)cc(S(=O)(=O)c2cc(C(N)=O)c(NC(=O)C(C)(C)O)s2)c1OC(F)F [Compound 419, 5-[5-cyano-2-(difluoromethoxy)-3-methoxy-phenyl]sulfonyl-2-[(2-hydroxy-2-methyl-propanoyl)amino] thiophene-3-carboxamide] | 6.33 | 6.60 | 6.17 | 6.21 | 6.21 | 7.58 | – |
| COc1ccc(C(F)(F)F)c(S(=O)(=O)c2cc(C(N)=O)c(NC(=O)C(C)(C)O)s2)n1 [Compound 420, 2-[(2-hydroxy-2-methyl-propanoyl)amino]-5-[[6-methoxy-3-(trifluoromethyl)-2-pyridyl]sulfonyl] thiophene-3-carboxamide] | 7.01 | 6.96 | 6.71 | 6.84 | 7.02 | 8.09 | – |
| CC(C)c1nn(C)cc1S(=O)(=O)c1cc(C(N)=O)c(NC(=O)C(C)(C)O)s1 [Compound 421, 2-[(2-hydroxy-2-methyl-propanoyl)amino]-5-(3-isopropyl-1-methyl-pyrazol-4-yl)sulfonyl-thiophene-3-carboxamide] | 5.72 | 5.80 | 5.26 | 5.95 | 5.81 | 7.16 | – |
| CC(C)(O)C(=O)Nc1sc(S(=O)(=O)c2ccc(C(F)(F)F)c(F)c2)cc1C(N)=O [Compound 422, 5-[3-fluoro-4-(trifluoromethyl)phenyl]sulfonyl-2-[(2-hydroxy-2-methyl-propanoyl)amino] thiophene-3-carboxamide] | 6.35 | 7.19 | 6.06 | 6.27 | 6.67 | 7.81 | – |
| CC(C)(O)C(=O)Nc1sc(S(=O)(=O)c2ccc(C(F)(F)F)c(Cl)n2)cc1C(N)=O [Compound 423, 5-[[6-chloro-5-(trifluoromethyl)-2-pyridyl]sulfonyl]-2-[(2-hydroxy-2-methyl-propanoyl)amino] thiophene-3-carboxamide] | 6.60 | 6.79 | 6.07 | 5.72 | 5.95 | 7.96 | – |
| CC(C)(O)C(=O)Nc1sc(S(=O)(=O)c2nc(Cl)ccc2C(F)(F)F)cc1C(N)=O [Compound 424, 5-[[6-chloro-3-(trifluoromethyl)-2-pyridyl]sulfonyl]-2-[(2-hydroxy-2-methyl-propanoyl)amino] thiophene-3-carboxamide] | 7.01 | 6.75 | 6.39 | 6.48 | 5.61 | 8.50 | – |
| CC(C)(O)C(=O)Nc1sc(S(=O)(=O)c2ccsc2C(F)(F)F)cc1C(N)=O [Compound 425, 2-[(2-hydroxy-2-methyl-propanoyl)amino]-5-[[2-(trifluoromethyl)-3-thienyl]sulfonyl] thiophene-3-carboxamide] | 6.84 | 5.90 | 6.12 | 6.15 | 6.44 | 8.16 | – |
| CC(C)(O)C(=O)Nc1sc(S(=O)(=O)c2nc(C(C)(C)C)ccc2C(F)(F)F)cc1C(N)=O [Compound 426, 5-[[6-tert-butyl-3-(trifluoromethyl)-2-pyridyl]sulfonyl]-2-[(2-hydroxy-2-methyl-propanoyl)amino] thiophene-3-carboxamide] | 7.08 | 8.01 | 7.21 | 7.58 | 8.22 | 8.59 | – |
| CC(C)(O)C(=O)Nc1sc(S(=O)(=O)c2cccc(C(F)(F)F)n2)cc1C(N)=O [Compound 427, 2-[(2-hydroxy-2-methyl-propanoyl)amino]-5-[[6-(trifluoromethyl)-2-pyridyl]sulfonyl] thiophene-3-carboxamide] | 5.87 | 6.17 | 5.65 | 5.99 | 6.36 | 7.38 | – |
| CC(C)(O)C(=O)Nc1sc(S(=O)(=O)c2cc(Cl)cc(C(F)(F)F)c2)cc1C(N)=O [Compound 429, 5-[3-chloro-5-(trifluoromethyl)phenyl]sulfonyl-2-[(2-hydroxy-2-methyl-propanoyl)amino] thiophene-3-carboxamide] | 6.68 | 6.85 | 6.03 | 6.30 | 6.64 | 7.76 | – |
| Cc1cc(C(F)(F)F)cc(S(=O)(=O)c2cc(C(N)=O)c(NC(=O)C(C)(C)O)s2)c1 [Compound 430, 2-[(2-hydroxy-2-methyl-propanoyl)amino]-5-[3-methyl-5-(trifluoromethyl)phenyl] sulfonyl-thiophene-3-carboxamide] | 6.49 | 6.55 | 5.82 | 6.15 | 5.48 | 7.97 | – |
| CC(C)(O)C(=O)Nc1sc(S(=O)(=O)c2cc(Cl)ncc2C#N)cc1C(N)=O [Compound 432, 5-[(2-chloro-5-cyano-4-pyridyl)sulfonyl]-2-[(2-hydroxy-2-methyl-propanoyl)amino] thiophene-3-carboxamide] | 6.44 | 5.95 | 5.26 | 5.83 | 5.48 | 7.32 | – |
| CC(C)(O)C(=O)Nc1sc(S(=O)(=O)c2ccc(C(C)(C)C)cn2)cc1C(N)=O [Compound 433, 5-[(5-tert-butyl-2-pyridyl)sulfonyl]-2-[(2-hdyroxy-2-methyl-propanoyl)amino] thiophene-3-carboxamide] | 6.17 | 6.66 | 5.88 | 6.39 | 5.48 | 7.31 | – |
| NC(=O)c1cc(S(=O)(=O)c2ccc(OC(F)(F)F)cc2F)sc1NC(=O)C1(CO)CC1 [Compound 435, 5-[2-fluoro-4-(trifluoromethoxy)phenyl] sulfonyl-2-[[1-(hydroxymethyl)cyclopropanecarbonyl]amino] thiophene-3-carboxamide] | 6.76 | 7.47 | 5.72 | 6.62 | 6.93 | 7.78 | – |
